Assays:
[1] = tested on: Rat Retinal Ischemia Reperfusion Model; assay: Protecting effect of retinal nerve in rat retinal ischemia reperfusion model (electroretinogram measurement); type: in vivo; settings: SD rats, 30 min retinal ischemia; 10 mg/kg orally twice a day for 14 days from 2 days after reperfusion; ERG about 1 hour after final administration; distilled water control group 35%
Procedure: A rat retinal ischemia reperfusion model was prepared by a partially modified method of Steven Roth et al. (Experimental Eye Research, Vol. 65, pp. 771-779, 1997).
As experimental animals, SD rats (SPF, 9-week-old, male, approximately 300 g of body weight) were used. Such rats were anesthetized with halothane (introduction: 4%; retention: 2%; gas composition: 70% air+30% oxygen; gas flow rate: 2 L/min). The rat was placed on a fixing plate with the left body side upward. The skin located between the external acoustic foramen and the external canthus on the left side was incised, and the skin-incised portion was held with a hook. The temporal muscle was burned out with a bipolar coagulator (output: 4.5 W), and it was detached from the cranial bone and the mandibular arch. […]
ERG was measured in accordance with the method of Kawakami et al. (Gifu-dai Iki, Vol. 48, pp. 166-175, 2000). […] The obtained waveform was swept on a memory oscilloscope and then recorded by a thermal array recorder. […] ERG of the ischemic eye was evaluated as a ratio to the value of normal control eye. ERG was measured after adaptation to darkness at 2 days after retinal ischemia reperfusion, and at approximately 1 hour after the final administration.

ratio of the ERG amplitude value of the ischemic eye to the normal control eye [1] [%] | melting point [°C] | Compound
65 | – | O=C(O)/C=C\C(=O)O.OC1CN(CCCOCCc2ccc3sccc3c2)C1 [1-(3-(2-(1-benzothiophene-5-yl)ethoxy)propyl)-3-azetidinol maleate]
– | 101 to 102 | Cl.OC1CN(CCOCCc2ccc3sccc3c2)C1

Source: patent publication US8067406B2, “Preventive/remedy for retinal nerve diseases containing alkyl ether derivatives or salts thereof” (Toyama Chemical Co., Ltd., priority 2003, dated 2011)
